Source: patent publication US20260355168A1, “COMPOSITIONS AND METHODS FOR TREATING AND DETECTING CANCER” (CASE WESTERN RESERVE UNIVERSITY, priority 2022, published 2026)
“Also recorded” adds a separate entry of the source.

Assays:
Gli36 cells = experiment: Gli36 glioma sphere formation and growth assay; format: cell-based, human
Procedure: FIGS. 6(A-E) illustrate a histogram and images showing the results of the Gli36 sphere formation and growth assays. Selected inhibitors, activators, and control compounds identified in LN229 and/or U87 scratch wound closure assays were retested at 100 μM in a secondary assay for glioma cell (Gli36) sphere formation and growth. A. Histogram showing the effects of the indicated compounds on Day 1 sphere footprint areas. Footprint areas were measured and normalized to the average footprint area of the unblinded DMSO-treated controls. On day 1, a larger footprint area indicates inhibition of aggregation. B. Histogram showing the effects of the indicated compounds on sphere growth. Changes in sphere footprint areas were calculated and normalized to the average size change of the unblinded vehicle-treated controls. On day 7, a smaller value indicates reduced growth. […] Data is presented as percentages±s.e.m. of 2-4 replicates. Representative images of samples treated with DMSO (C) and two priority inhibitors (D and E) are shown. Relative day 1 footprint areas and day 7 growth measurements are indicated for each example.
(§1) Cells were seeded at a density of 7500 cells per well into the internal wells of 96-well plates coated with 0.75% (wt/vol) PVA as previously described. Compounds were added (2×replicates per treatment) at the indicated final concentrations, and control wells were treated with matching concentrations of DMSO. The external wells of the plates were filled with PBS to buffer against edge effects, and the cells were incubated at 37 °C and 5% CO2 for 7 days. A Leica CTR6500 microscope fitted with an automated stage was used to capture brightfield images on day 1 and day 7, and sphere footprint areas were measured using Image J (v1.52a http://imagej.nih.gov/ij) as previously described. To quantify the effects of the compounds on day 1, the footprint areas of the treated wells were normalized to the average area of the matched DMSO control wells. To quantify the effects of the compounds on sphere growth, the change in the sphere footprint areas was calculated ([…]) and then normalized to the average size change of the matched DMSO samples. All values are presented as average percentages±s.e.m.

PTPμ = PTPμ (Homo sapiens, UniProt P28827); experiment: PTPμ-dependent Sf9 aggregation assay; format: cell-based; conditions: 100 μM; 20 min pretreatment; in words
Chain of PTPμ (P28827 21-1452): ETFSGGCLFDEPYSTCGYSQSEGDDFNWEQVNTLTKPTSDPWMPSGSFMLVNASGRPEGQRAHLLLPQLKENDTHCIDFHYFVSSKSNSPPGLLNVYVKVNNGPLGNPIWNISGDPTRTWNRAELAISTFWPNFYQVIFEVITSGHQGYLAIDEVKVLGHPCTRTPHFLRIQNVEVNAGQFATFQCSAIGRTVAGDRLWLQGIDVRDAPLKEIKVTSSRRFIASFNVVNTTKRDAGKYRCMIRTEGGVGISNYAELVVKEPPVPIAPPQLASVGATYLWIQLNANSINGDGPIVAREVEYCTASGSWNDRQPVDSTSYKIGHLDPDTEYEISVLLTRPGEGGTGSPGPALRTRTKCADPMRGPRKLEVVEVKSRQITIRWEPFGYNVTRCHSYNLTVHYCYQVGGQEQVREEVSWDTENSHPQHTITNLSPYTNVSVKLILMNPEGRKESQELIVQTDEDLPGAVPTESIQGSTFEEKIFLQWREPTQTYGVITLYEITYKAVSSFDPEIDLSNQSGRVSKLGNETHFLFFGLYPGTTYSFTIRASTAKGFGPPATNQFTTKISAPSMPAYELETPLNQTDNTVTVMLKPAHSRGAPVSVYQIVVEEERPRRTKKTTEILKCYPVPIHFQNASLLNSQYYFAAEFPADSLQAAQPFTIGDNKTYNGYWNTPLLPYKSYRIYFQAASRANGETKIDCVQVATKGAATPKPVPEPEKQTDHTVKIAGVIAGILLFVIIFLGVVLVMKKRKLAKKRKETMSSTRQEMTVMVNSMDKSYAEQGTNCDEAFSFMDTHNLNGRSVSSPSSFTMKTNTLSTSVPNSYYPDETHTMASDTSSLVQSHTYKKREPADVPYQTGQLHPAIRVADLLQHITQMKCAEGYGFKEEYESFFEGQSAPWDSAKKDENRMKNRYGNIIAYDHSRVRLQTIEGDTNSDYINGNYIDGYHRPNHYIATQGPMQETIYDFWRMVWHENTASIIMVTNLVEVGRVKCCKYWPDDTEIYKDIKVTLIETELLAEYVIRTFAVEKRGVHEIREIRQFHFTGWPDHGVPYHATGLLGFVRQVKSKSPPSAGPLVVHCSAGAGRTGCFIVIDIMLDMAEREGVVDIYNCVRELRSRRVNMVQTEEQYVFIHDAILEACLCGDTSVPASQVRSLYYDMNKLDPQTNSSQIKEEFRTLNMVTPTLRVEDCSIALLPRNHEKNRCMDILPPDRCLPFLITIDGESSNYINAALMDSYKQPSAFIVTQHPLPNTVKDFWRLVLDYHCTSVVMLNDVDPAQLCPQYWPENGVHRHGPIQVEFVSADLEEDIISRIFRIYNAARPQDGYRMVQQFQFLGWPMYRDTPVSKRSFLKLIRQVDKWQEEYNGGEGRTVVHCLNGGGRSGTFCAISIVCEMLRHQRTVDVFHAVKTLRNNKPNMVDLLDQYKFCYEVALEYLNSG

glioma cells = experiment: Glioma cell assays combined (scratch and sphere, several cell lines); format: cell-based, human; conditions: 100 μM; multiple assays and cell lines
Procedure: FIG. 2 illustrates a schematic of a functional screening approach. Seventy-four PTPμ wedge-targeted compounds and 2 blinded DMSO samples were received from Atomwise and screened at 100 μM in scratch wound healing assays using two glioma cell lines (LN229 and U87). Selected active and control compounds were taken into secondary assays (Gli36 scratch and LN229 and Gli36 sphere formation and growth assays). Inhibitors selected as being active in primary and secondary screens were tested for effects on the survival of LN229 and Sf9 cells, and selected glioma-cell inhibitors and activators were screened for effects on Sf9-PTPμ aggregation, a highly specific test for PTPμ function.
(§2) Cells were seeded at a density of 2.7×10^4 cells per well into the internal wells of Incuyte1 Imagelock 96-well plates (Essen BioScience Inc., Ann Arbor, MI) and cultured overnight to form monolayers. Monolayers were wounded with an IncuCyte1 96-well Woundmaker Tool per the manufacturer's instructions. The outer wells were filled with PBS to buffer edge effects, and then the wounded monolayers were cultured in 100 μl of fresh media with compounds or DMSO (2×replicates at 100 μM or 1%, respectively) at 37 °C and 5% CO2. Images were captured every 4 hrs. using an Incucyte live cell imaging system equipped with the Scratch Wound Module. Scratch wound widths were calculated, per the manufacturer's instructions, at TO and at endpoint (typically T12 for LN229 and U87 cells and T8 for Gli36), which was taken as the last timepoint before wound closure. The cell migration distance was calculated from scratch widths [(T0Width−TendpointWidth)/2] and normalized to the average distance migrated by the DMSO controls. Values are presented as average percentages±standard errors of the means (s.e.m.). The majority of compounds were screened with an n of two, but the n for priority hits ranges from 2-6.
as §1

U87 cells = experiment: U87 scratch wound healing assay; format: cell-based, human; conditions: 100 μM; in words
From the text: FIGS. 11(A-D) illustrate a histogram and images of the results of the U87 scratch wound assays. A. Histogram showing the effects of all soluble wedge pocket-targeting compounds on U87 scratch wound closure. Cell movement into the scratches was quantified from scratch wound widths at the start and end of the assay and normalized to the average movement of cells in the unblinded DMSO control samples. Data is presented as average percentages±s.e.m., and compound bar codes are shown on the x-axis. Most compounds were screened with an n of 2-4. Representative images of scratch wounds treated with DMSO (A) or two priority inhibitors (C and D) are shown.
as §2

LN229 cells [1] = experiment: LN229 scratch wound healing assay; format: cell-based, human
From the text: FIGS. 3(A-D) illustrate a histogram and images of the LN229 scratch wound assays. A. Histogram showing the effects of all soluble wedge-targeted compounds on LN229 scratch wound closure. Cell movement into the scratches was quantified from scratch wound widths at the start and end of the assay and normalized to the average movement of cells in the unblinded DMSO control samples. Data is presented as average percentages±standard error of the means (s.e.m.), and compound bar codes are shown on the x-axis. The majority of compounds were screened with an n=2. Some priority compounds were screened with 3-6 replicates. Representative endpoint images of samples treated with DMSO (B) and two priority inhibitors (C and D) are shown. The relative migration distances for each example are indicated.
as §2
Scratch assays measure the ability of cells to migrate into a wound and close it creating a monolayer.

LN229 cells [2] = experiment: LN229 glioma sphere formation and growth assay; format: cell-based, human; conditions: 100 μM, in words
Procedure: FIGS. 5(A-E) illustrate a histogram and images showing the results of the LN229 sphere formation and growth assays. Selected inhibitors, activators, and control compounds identified in LN229 and/or U87 scratch wound closure assays were retested at 100 μM in a secondary assay for glioma cell (LN229) sphere formation and growth. A. Histogram showing the effects of the indicated compounds on sphere formation. On day 1, sphere footprint areas were determined and normalized to the average footprint area of the unblinded vehicle-treated controls. On day 1, a larger footprint area indicates inhibition of aggregation. B. Histogram showing the effects of the indicated compounds on sphere growth. On day 7, the changes in sphere footprint areas were calculated and normalized to the average size change of the unblinded vehicle-treated controls. On day 7, a smaller value indicates reduced growth. […] Data is presented as percentages±s.e.m. of 2-4 replicates. Representative images of samples treated with DMSO (C) and two priority inhibitors (D and E) are shown. Relative day 1 footprint areas and day 7 growth measurements are indicated for each example.
FIGS. 15(A-D) illustrate a histogram and images of titration of selected compounds on LN229 sphere formation and growth. LN229 cells were plated onto non-adherent surfaces and treated with the indicated compounds at 100, 50, and 25 μM. A. On day 1, sphere footprint areas were determined and normalized to the average footprint area of the unblinded vehicle-treated controls. On day 1, a larger foot-print area indicates inhibition of aggregation. B. On day 7, the changes in sphere footprint areas were calculated and normalized to the average size change of the unblinded vehicle-treated controls. On day 7, a smaller value indicates reduced growth. […] Data is presented as percentages±s.e.m. The initial test at 100 μM and the follow-up at that dose with titration is shown. Each bar is the average of 2 replicates. Representative day 1 (C) and day 7 (D) images of samples treated with two priority inhibitors are shown. Relative day 1 sphere footprint areas and day 7 growth for each example are indicated.
as §1
We tested the effects of twenty-four compounds (11 flagged as inhibitory, 4 as stimulatory, and nine as inert in the initial scratch-wound screen, FIG. 2) on the ability of LN229 cells to mediate cell-cell adhesion and grow in 3D culture on non-adherent surfaces. To quantify sphere formation (FIG. 5A), the footprint areas of aggregates were measured on day 1 and normalized to that of the DMSO control. At this time point, a larger footprint size (>120%) indicates inhibition, i.e., the failure of cells to form a compact aggregate. To quantify sphere growth (FIG. 5B), we calculated the percent changes in sphere footprint areas between day 1 and day 7 and normalized them to that of the DMSO controls.

COc1ccc(CC(NC(=O)C2CC(NC(=O)CSC)CCN2C(=O)CCC(=O)O)C(N)=O)cc1 (stereo not shown) [Compound 247685114]
Effect on Gli36 sphere formation (Gli36 cells; 100 μM, day 1, in words): affected Gli36 spheres; also recorded: accelerate Gli36 sphere condensation and growth; also recorded: weakly stimulatory in U87 and LN229 scratch assays and Gli36 sphere formation and growth assays; also recorded: stimulate Gli36 sphere formation and growth
Effect on Gli36 sphere growth (Gli36 cells; 100 μM, day 7, in words): grew marginally faster than controls; also recorded: modest activator of Gli36 sphere growth; also recorded: weakly stimulatory in U87 and LN229 scratch assays and Gli36 sphere formation and growth assays; also recorded: stimulate Gli36 sphere formation and growth
activity at 100 µM (Gli36 cells; Homo sapiens, GLI36, 24 h, day 1, of the control area, read-out: Average day 1 sphere footprint area, Gli36): 68%
Effect on PTPμ-dependent Sf9 aggregation / adhesion (PTPμ): activate Sf9-PTPμ aggregation; also recorded: activate PTPμ-dependent adhesion; also recorded: considerable increase in aggregate numbers; also recorded: activator of PTPμ-dependent adhesion; also recorded: able to activate PTPμ-mediated aggregation
Effect on glioma cells, overall (glioma cells): only weak, if any, activity in other glioma-cell assays
Effect on U87 cell migration (scratch wound closure) (U87 cells): did not reach our strict cut-off for an activator; also recorded: weakly stimulatory in U87 and LN229 scratch assays
Effect on LN229 scratch wound closure / migration (LN229 cells [1]; 100 μM, in words): moderately stimulated LN229; also recorded: weakly stimulatory in U87 and LN229 scratch assays
activity at 100 µM (LN229 cells [1]; Homo sapiens, LN-229, normalized to DMSO controls, read-out: LN229 scratch wound closure relative to DMSO controls): ~120%
Effect on LN229 sphere formation (LN229 cells [2]; day 1): did not affect LN229 sphere formation or growth
Effect on LN229 sphere growth (LN229 cells [2]; day 7): did not affect LN229 sphere formation or growth
